Like-named read-outs stand apart in the source and are kept apart here.
Experiment: SAD study in healthy volunteers: PK in plasma, whole blood, red blood cells
Assay type: in vivo, human
Conditions: for Cmax / AUC(0-t) / half-life / Kp / blood plasma ratio: human; for Kp: red blood cells and plasma; for Kp / blood plasma ratio: HV, dose range of 50 to 2200 mg; for blood plasma ratio: whole blood and plasma
Description: To evaluate the safety and tolerability of single ascending doses of Compound I, 48 healthy volunteers (42 in the fasted state and 6 in the fed state) aged 18 to 55 years old were administered single ascending doses (50 mg to 2200 mg) of Compound I, while 16 healthy volunteers (14 in the fasted state and 2 in the fed state) aged 18 to 55 years old were administered placebo in a double blind, randomized, sequential manner.
Whole blood pharmacokinetic (PK) parameters, using actual sample collection times, and hemoglobin occupancy after single ascending dose are shown in Table 5 (containing data from both healthy volunteers and SCD subjects) and Table 6 (containing data from only healthy volunteer subjects).

SMILES: O=Cc1c(O)cccc1OC[C@@H]1COCCN1C(=O)c1cccnc1CCO [Compound I, (S)-2-hydroxy-6-((4-(2-(2-hydroxyethyl)nicotinoyl)morpholin-3-yl)methoxy)benzaldehyde]
- B:P ratio (mean AUC0-t blood:mean AUC0-t plasma) (HV single 50 mg): 220
- B:P ratio (mean AUC0-t blood:mean AUC0-t plasma) (HV single 100 mg): 214
- B:P ratio (mean AUC0-t blood:mean AUC0-t plasma) (HV single 200 mg): 206
- B:P ratio (mean AUC0-t blood:mean AUC0-t plasma) (HV single 400 mg): 185
- B:P ratio AUC0-inf (healthy subjects n=6, single 100 mg): 216
- Cmax (plasma, 100 mg, healthy volunteers n=6, single 100 mg, geometric mean): 714 ng/mL
- AUC(0-t) (plasma, 100 mg, healthy volunteers n=6, single 100 mg, plasma, geometric mean, read-out: AUC0-t): 68.7 µg·h/mL
- half-life (plasma, 100 mg, healthy volunteers n=6, single 100 mg, plasma, geometric mean, read-out: t½ (converted)): 25.6 days
- Cmax (plasma, po, 50 mg, HV single oral 50 mg (Cohort 1), geometric mean): 400 ng/mL
- AUC(0-t) (plasma, po, 50 mg, HV single oral 50 mg (Cohort 1), plasma, geometric mean, read-out: AUClast): 31.1 µg·h/mL
- half-life (plasma, po, 50 mg, HV single oral 50 mg (Cohort 1), plasma, geometric mean, read-out: t1/2 (converted)): 28.7 days
- Cmax (plasma, po, 100 mg, HV single oral 100 mg (Cohort 2), geometric mean): 714 ng/mL
- AUC(0-t) (plasma, po, 100 mg, HV single oral 100 mg (Cohort 2), plasma, geometric mean, read-out: AUClast): 68.7 µg·h/mL
- half-life (plasma, po, 100 mg, HV single oral 100 mg (Cohort 2), plasma, geometric mean, read-out: t1/2 (converted)): 25.6 days
- Cmax (plasma, po, 200 mg, HV single oral 200 mg (Cohort 3), geometric mean): 1290 ng/mL
- AUC(0-t) (plasma, po, 200 mg, HV single oral 200 mg (Cohort 3), plasma, geometric mean, read-out: AUClast): 135 µg·h/mL
- half-life (plasma, po, 200 mg, HV single oral 200 mg (Cohort 3), plasma, geometric mean, read-out: t1/2 (converted)): 30.8 days
- Cmax (plasma, po, 400 mg, HV single oral 400 mg (Cohort 5), geometric mean): 3190 ng/mL
- AUC(0-t) (plasma, po, 400 mg, HV single oral 400 mg (Cohort 5), plasma, geometric mean, read-out: AUClast): 331 µg·h/mL
- half-life (plasma, po, 400 mg, HV single oral 400 mg (Cohort 5), plasma, geometric mean, read-out: t1/2 (converted)): 26 days
- Cmax (plasma, po, 800 mg, HV single oral 800 mg (Cohort 6), geometric mean): 4250 ng/mL
- AUC(0-t) (plasma, po, 800 mg, HV single oral 800 mg (Cohort 6), plasma, geometric mean, read-out: AUClast): 609 µg·h/mL
- half-life (plasma, po, 800 mg, HV single oral 800 mg (Cohort 6), plasma, geometric mean, read-out: t1/2 (converted)): 20.7 days
- Cmax (plasma, po, 1400 mg, HV single oral 1400 mg (Cohort 7), geometric mean): 7780 ng/mL
- AUC(0-t) (plasma, po, 1400 mg, HV single oral 1400 mg (Cohort 7), plasma, geometric mean, read-out: AUClast): 1030 µg·h/mL
- half-life (plasma, po, 1400 mg, HV single oral 1400 mg (Cohort 7), plasma, geometric mean, read-out: t1/2 (converted)): 21.4 days
- Cmax (plasma, po, 2200 mg, HV single oral 2200 mg (Cohort 8), geometric mean): 9300 ng/mL
- AUC(0-t) (plasma, po, 2200 mg, HV single oral 2200 mg (Cohort 8), plasma, geometric mean, read-out: AUClast): 1360 µg·h/mL
- half-life (plasma, po, 2200 mg, HV single oral 2200 mg (Cohort 8), plasma, geometric mean, read-out: t1/2 (converted)): 22.1 days
- Kp (read-out: mean RBC to plasma ratio for AUCinf): 420 to 530
- Kp (read-out: mean RBC to plasma ratio for Cmax): 49 to 99
- AUC(0-t) (red blood cells, po, 50 mg, HV single oral 50 mg (Cohort 1), red blood cells (calculated conc.), geometric mean, read-out: AUClast): 16500 µg·h/mL
- half-life (red blood cells, po, 50 mg, HV single oral 50 mg (Cohort 1), red blood cells (calculated conc.), geometric mean, read-out: t1/2 (converted)): 28.3 days
- Cmax (red blood cells, po, 50 mg, HV single oral 50 mg (Cohort 1), red blood cells (conc. calculated from blood, plasma, hematocrit), geometric mean): 19300 ng/mL
- Cmax (red blood cells, po, 100 mg, HV single oral 100 mg (Cohort 2), red blood cells (calculated conc.), geometric mean): 41700 ng/mL
- AUC(0-t) (red blood cells, po, 100 mg, HV single oral 100 mg (Cohort 2), red blood cells (calculated conc.), geometric mean, read-out: AUClast): 34500 µg·h/mL
- half-life (red blood cells, po, 100 mg, HV single oral 100 mg (Cohort 2), red blood cells (calculated conc.), geometric mean, read-out: t1/2 (converted)): 29 days
- Cmax (red blood cells, po, 200 mg, HV single oral 200 mg (Cohort 3), red blood cells (calculated conc.), geometric mean): 76900 ng/mL
- AUC(0-t) (red blood cells, po, 200 mg, HV single oral 200 mg (Cohort 3), red blood cells (calculated conc.), geometric mean, read-out: AUClast): 64400 µg·h/mL
- half-life (red blood cells, po, 200 mg, HV single oral 200 mg (Cohort 3), red blood cells (calculated conc.), geometric mean, read-out: t1/2 (converted)): 28.1 days
- Cmax (red blood cells, po, 400 mg, HV single oral 400 mg (Cohort 5), red blood cells (calculated conc.), geometric mean): 210000 ng/mL
- AUC(0-t) (red blood cells, po, 400 mg, HV single oral 400 mg (Cohort 5), red blood cells (calculated conc.), geometric mean, read-out: AUClast): 151000 µg·h/mL
- half-life (red blood cells, po, 400 mg, HV single oral 400 mg (Cohort 5), red blood cells (calculated conc.), geometric mean, read-out: t1/2 (converted)): 25.2 days
- Cmax (red blood cells, po, 800 mg, HV single oral 800 mg (Cohort 6), red blood cells (calculated conc.), geometric mean): 351000 ng/mL
- AUC(0-t) (red blood cells, po, 800 mg, HV single oral 800 mg (Cohort 6), red blood cells (calculated conc.), geometric mean, read-out: AUClast): 247000 µg·h/mL
- half-life (red blood cells, po, 800 mg, HV single oral 800 mg (Cohort 6), red blood cells (calculated conc.), geometric mean, read-out: t1/2 (converted)): 26 days
- Cmax (red blood cells, po, 1400 mg, HV single oral 1400 mg (Cohort 7), red blood cells (calculated conc.), geometric mean): 543000 ng/mL
- AUC(0-t) (red blood cells, po, 1400 mg, HV single oral 1400 mg (Cohort 7), red blood cells (calculated conc.), geometric mean, read-out: AUClast): 455000 µg·h/mL
- half-life (red blood cells, po, 1400 mg, HV single oral 1400 mg (Cohort 7), red blood cells (calculated conc.), geometric mean, read-out: t1/2 (converted)): 27.4 days
- Cmax (red blood cells, po, 2200 mg, HV single oral 2200 mg (Cohort 8), red blood cells (calculated conc.), geometric mean): 910000 ng/mL
- AUC(0-t) (red blood cells, po, 2200 mg, HV single oral 2200 mg (Cohort 8), red blood cells (calculated conc.), geometric mean, read-out: AUClast): 626000 µg·h/mL
- half-life (red blood cells, po, 2200 mg, HV single oral 2200 mg (Cohort 8), red blood cells (calculated conc.), geometric mean, read-out: t1/2 (converted)): 24.6 days
- blood plasma ratio (read-out: mean blood to plasma ratio for AUCinf): 177 to 219
- blood plasma ratio (read-out: mean blood to plasma ratio for Cmax): 20 to 42
- Cmax (whole blood, 50 mg, HV single 50 mg, mean): 8100 ng/mL
- AUC(0-t) (whole blood, 50 mg, HV single 50 mg, whole blood, mean, read-out: AUC0-t): 6900 µg·h/mL
- half-life (whole blood, 50 mg, HV single 50 mg, whole blood, mean, read-out: t1/2 (converted)): 28.9 days
- Cmax (whole blood, 100 mg, HV single 100 mg, mean): 17400 ng/mL
- AUC(0-t) (whole blood, 100 mg, HV single 100 mg, whole blood, mean, read-out: AUC0-t): 14400 µg·h/mL
- half-life (whole blood, 100 mg, HV single 100 mg, whole blood, mean, read-out: t1/2 (converted)): 29.8 days
- Cmax (whole blood, 100 mg, healthy subjects n=6, single 100 mg, blood, geometric mean): 17300 ng/mL
- AUC(0-t) (whole blood, 100 mg, healthy subjects n=6, single 100 mg, blood, geometric mean, read-out: AUC0-t): 14300 µg·h/mL
- half-life (whole blood, 100 mg, healthy subjects n=6, single 100 mg, blood, geometric mean, read-out: t½ (converted)): 29.1 days
- Cmax (whole blood, 200 mg, HV single 200 mg, mean): 35800 ng/mL
- AUC(0-t) (whole blood, 200 mg, HV single 200 mg, whole blood, mean, read-out: AUC0-t): 29300 µg·h/mL
- half-life (whole blood, 200 mg, HV single 200 mg, whole blood, mean, read-out: t1/2 (converted)): 28.4 days
- Cmax (whole blood, 400 mg, HV single 400 mg, mean): 88100 ng/mL
- AUC(0-t) (whole blood, 400 mg, HV single 400 mg, whole blood, mean, read-out: AUC0-t): 61900 µg·h/mL
- half-life (whole blood, 400 mg, HV single 400 mg, whole blood, mean, read-out: t1/2 (converted)): 25.8 days
- Cmax (whole blood, 800 mg, HV single 800 mg, mean): 149000 ng/mL
- AUC(0-t) (whole blood, 800 mg, HV single 800 mg, whole blood, mean, blood collected up to day 42, read-out: AUC0-t): 74300 µg·h/mL
- Cmax (whole blood, 1400 mg, HV single 1400 mg, mean): 231000 ng/mL
- AUC(0-t) (whole blood, 1400 mg, HV single 1400 mg, whole blood, mean, blood collected up to day 42, read-out: AUC0-t): 137000 µg·h/mL

— patent US20250041312A1, “METHODS OF ADMINISTERING A MODULATOR OF HEMOGLOBIN” (Global Blood Therapeutics, Inc., priority 2021, published 2025)
